Reference: ChEMBL document CHEMBL4152339, “Design and synthesis of novel 1H-tetrazol-5-amine based potent antimicrobial agents: DNA topoisomerase IV and gyrase affinity evaluation supported by molecular docking studies” (Eur J Med Chem, 2018)

How the values were obtained:
[1] = Inhibition of Staphylococcus aureus DNA topoisomerase 4 using Kinetoplast DNA as substrate after 30 mins by ethidium bromide staining based agarose gel electrophoresis method
Staphylococcus aureus [2] = test: Antibacterial activity against Staphylococcus aureus NCTC 4163 after 18 hrs by CLSI disc diffusion method; assay type: functional; conditions: NCTC 4163, 18 h
Staphylococcus aureus [3] = test: Antibacterial activity against Staphylococcus aureus ATCC 25923 after 18 hrs by CLSI disc diffusion method; assay type: functional; conditions: ATCC 25923, 18 h
Staphylococcus aureus [4] = test: Antibacterial activity against Staphylococcus aureus ATCC 6538 after 18 hrs by CLSI disc diffusion method; assay type: functional; conditions: ATCC 6538, 18 h
[5] = test system: Staphylococcus epidermidis; test: Antibacterial activity against Staphylococcus epidermidis ATCC 12228 after 18 hrs by CLSI disc diffusion method; assay type: functional; conditions: ATCC 12228, 18 h
[6] = test system: Staphylococcus epidermidis; test: Antibacterial activity against Staphylococcus epidermidis ATCC 35984 after 18 hrs by CLSI […] method; assay type: functional; conditions: ATCC 35984, 18 h
Bacillus spizizenii = test: Antibacterial activity against Bacillus subtilis ATCC 6633 after 18 hrs by CLSI disc diffusion method; assay type: functional; conditions: ATCC 6633, 18 h
Bacillus cereus = test: Antibacterial activity against Bacillus cereus ATCC 11778 after 18 hrs by CLSI disc diffusion method; assay type: functional; conditions: ATCC 11778, 18 h
Enterococcus hirae = test: Antibacterial activity against Enterococcus hirae ATCC 10541 after 18 hrs by CLSI disc diffusion method; assay type: functional; conditions: ATCC 10541, 18 h
Enterococcus faecalis = test: Antibacterial activity against Enterococcus faecalis ATCC 29212 after 18 hrs by CLSI disc diffusion method; assay type: functional; conditions: ATCC 29212, 18 h
Micrococcus luteus [7] = test: Antibacterial activity against Micrococcus luteus ATCC 10240 after 18 hrs by CLSI disc diffusion method; assay type: functional; conditions: ATCC 10240, 18 h
Micrococcus luteus [8] = test: Antibacterial activity against Micrococcus luteus ATCC 9341 after 18 hrs by CLSI disc diffusion method; assay type: functional; conditions: ATCC 9341, 18 h
Escherichia coli [9] = test: Antibacterial activity against Escherichia coli ATCC 10538 after 18 hrs by CLSI disc diffusion method; assay type: functional; conditions: ATCC 10538, 18 h
Proteus vulgaris = test: Antibacterial activity against Proteus vulgaris NCTC 4635 after 18 hrs by CLSI disc diffusion method; assay type: functional; conditions: NCTC 4635, 18 h
Pseudomonas aeruginosa [10] = test: Antibacterial activity against Pseudomonas aeruginosa ATCC 15442 after 18 hrs by CLSI disc diffusion method; assay type: functional; conditions: ATCC 15442, 18 h
Pseudomonas aeruginosa [11] = test: Antibacterial activity against Pseudomonas aeruginosa ATCC 27853 after 18 hrs by CLSI disc diffusion method; assay type: functional; conditions: ATCC 27853, 18 h
[12] = test system: Bordetella bronchiseptica; test: Antibacterial activity against Bordetella bronchiseptica ATCC 4617 after 18 hrs by CLSI disc diffusion method; assay type: functional; conditions: ATCC 4617, 18 h
Staphylococcus aureus [13] = test: Antibacterial activity against Staphylococcus aureus 495 after 18 hrs by CLSI disc diffusion method; assay type: functional; conditions: Staphylococcus aureus, 495, 18 h
Staphylococcus aureus [14] = test: Antibacterial activity against Staphylococcus aureus 496 after 18 hrs by CLSI disc diffusion method; assay type: functional; conditions: Staphylococcus aureus, 496, 18 h
Staphylococcus aureus [15] = test: Antibacterial activity against Staphylococcus aureus 497 after 18 hrs by CLSI disc diffusion method; assay type: functional; conditions: Staphylococcus aureus, 497, 18 h
Staphylococcus aureus [16] = test: Antibacterial activity against Staphylococcus aureus 498 after 18 hrs by CLSI disc diffusion method; assay type: functional; conditions: Staphylococcus aureus, 498, 18 h
Staphylococcus aureus [17] = test: Antibacterial activity against Staphylococcus aureus 537 after 18 hrs by CLSI disc diffusion method; assay type: functional; conditions: Staphylococcus aureus, 537, 18 h
Staphylococcus aureus [18] = test: Antibacterial activity against Staphylococcus aureus 572 after 18 hrs by CLSI disc diffusion method; assay type: functional; conditions: Staphylococcus aureus, 572, 18 h
Staphylococcus aureus [19] = test: Antibacterial activity against Staphylococcus aureus 585 after 18 hrs by CLSI disc diffusion method; assay type: functional; conditions: Staphylococcus aureus, 585, 18 h
Staphylococcus aureus [20] = test: Antibacterial activity against Staphylococcus aureus 586 after 18 hrs by CLSI disc diffusion method; assay type: functional; conditions: Staphylococcus aureus, 586, 18 h
[21] = test system: Staphylococcus epidermidis; test: Antibacterial activity against Staphylococcus epidermidis 423 after 18 hrs by CLSI disc diffusion method; assay type: functional; conditions: Staphylococcus epidermidis, 423, 18 h
[22] = test system: Staphylococcus epidermidis; test: Antibacterial activity against Staphylococcus epidermidis 431 after 18 hrs by CLSI disc diffusion method; assay type: functional; conditions: Staphylococcus epidermidis, 431, 18 h
[23] = test system: Staphylococcus epidermidis; test: Antibacterial activity against Staphylococcus epidermidis 432 after 18 hrs by CLSI disc diffusion method; assay type: functional; conditions: Staphylococcus epidermidis, 432, 18 h
[24] = test system: Staphylococcus epidermidis; test: Antibacterial activity against Staphylococcus epidermidis 433 after 18 hrs by CLSI disc diffusion method; assay type: functional; conditions: Staphylococcus epidermidis, 433, 18 h
[25] = test system: Staphylococcus epidermidis; test: Antibacterial activity against Staphylococcus epidermidis 469 after 18 hrs by CLSI disc diffusion method; assay type: functional; conditions: Staphylococcus epidermidis, 469, 18 h
[26] = test system: Staphylococcus epidermidis; test: Antibacterial activity against Staphylococcus epidermidis 471 after 18 hrs by CLSI disc diffusion method; assay type: functional; conditions: Staphylococcus epidermidis, 471, 18 h
[27] = test system: Staphylococcus epidermidis; test: Antibacterial activity against Staphylococcus epidermidis 510 after 18 hrs by CLSI disc diffusion method; assay type: functional; conditions: Staphylococcus epidermidis, 510, 18 h
[28] = test system: Staphylococcus epidermidis; test: Antibacterial activity against Staphylococcus epidermidis 511 after 18 hrs by CLSI disc diffusion method; assay type: functional; conditions: Staphylococcus epidermidis, 511, 18 h
Pseudomonas aeruginosa [29] = test: Antibacterial activity against Pseudomonas aeruginosa 6m after 18 hrs by CLSI disc diffusion method; assay type: functional
Pseudomonas aeruginosa [30] = test: Antibacterial activity against Pseudomonas aeruginosa 7m after 18 hrs by CLSI disc diffusion method; assay type: functional
Pseudomonas aeruginosa [31] = test: Antibacterial activity against Pseudomonas aeruginosa 10m after 18 hrs by CLSI disc diffusion method; assay type: functional
Pseudomonas aeruginosa [32] = test: Antibacterial activity against Pseudomonas aeruginosa 11m after 18 hrs by CLSI disc diffusion method; assay type: functional
Pseudomonas aeruginosa [33] = test: Antibacterial activity against Pseudomonas aeruginosa 12m after 18 hrs by CLSI disc diffusion method; assay type: functional
Pseudomonas aeruginosa [34] = test: Antibacterial activity against Pseudomonas aeruginosa 16m after 18 hrs by CLSI disc diffusion method; assay type: functional
Pseudomonas aeruginosa [35] = test: Antibacterial activity against Pseudomonas aeruginosa 18m after 18 hrs by CLSI disc diffusion method; assay type: functional
Pseudomonas aeruginosa [36] = test: Antibacterial activity against Pseudomonas aeruginosa 31m after 18 hrs by CLSI disc diffusion method; assay type: functional
Escherichia coli [37] = test: Antibacterial activity against Escherichia coli ML 5 after 18 hrs by CLSI disc diffusion method; assay type: functional; conditions: ML 5, 18 h
Escherichia coli [38] = test: Antibacterial activity against Escherichia coli ML 6 after 18 hrs by CLSI disc diffusion method; assay type: functional; conditions: ML 6, 18 h
Escherichia coli [39] = test: Antibacterial activity against Escherichia coli ML 8 after 18 hrs by CLSI disc diffusion method; assay type: functional; conditions: ML 8, 18 h
Escherichia coli [40] = test: Antibacterial activity against Escherichia coli ML 9 after 18 hrs by CLSI disc diffusion method; assay type: functional; conditions: ML 9, 18 h
Escherichia coli [41] = test: Antibacterial activity against Escherichia coli ML 12 after 18 hrs by CLSI disc diffusion method; assay type: functional; conditions: ML 12, 18 h
Escherichia coli [42] = test: Antibacterial activity against Escherichia coli ML 15 after 18 hrs by CLSI disc diffusion method; assay type: functional; conditions: ML 15, 18 h
Escherichia coli [43] = test: Antibacterial activity against Escherichia coli ML 16 after 18 hrs by CLSI disc diffusion method; assay type: functional; conditions: ML 16, 18 h
Escherichia coli [44] = test: Antibacterial activity against Escherichia coli ML 17 after 18 hrs by CLSI disc diffusion method; assay type: functional; conditions: ML 17, 18 h
A549 = test: Cytotoxicity activity against human A549 cells assessed as reduction in cell viability after 72 hrs by MTT assay; assay type: cell-based; conditions: A549, 72 h
HaCaT = test: Cytotoxicity activity against human HaCaT cells assessed as reduction in cell viability after 72 hrs by MTT assay; assay type: cell-based
[45] = Selectivity index, ratio of IC50 for human HaCaT cells to MIC for Staphylococcus aureus NCTC 4163; assay type: toxicity; conditions: read-out: Selectivity Index
[46] = Selectivity index, ratio of IC50 for human HaCaT cells to MIC for Bacillus subtilis ATCC 6633; assay type: toxicity; conditions: read-out: Selectivity Index
[47] = Selectivity index, ratio of IC50 for human HaCaT cells to MIC for Enterococcus hirae ATCC 10541; assay type: toxicity; conditions: read-out: Selectivity Index
[48] = Selectivity index, ratio of IC50 for human HaCaT cells to MIC for Micrococcus luteus ATCC 10240; assay type: toxicity; conditions: read-out: Selectivity Index
[49] = Selectivity index, ratio of IC50 for human HaCaT cells to MIC for Escherichia coli ATCC 10538; assay type: toxicity; conditions: read-out: Selectivity Index
[50] = Selectivity index, ratio of IC50 for human HaCaT cells to MIC for Proteus vulgaris NCTC 4635; assay type: toxicity; conditions: read-out: Selectivity Index
[51] = Selectivity index, ratio of IC50 for human HaCaT cells to MIC for Bordetella bronchiseptica ATCC 4617; assay type: toxicity; conditions: read-out: Selectivity Index

O=C(O)c1cn(C2CC2)c2cc(N3CCNCC3)c(F)cc2c1=O [CIPROFLOXACIN]
1.7 µg/mL: IC50 [1]

O=C(O)n1nnnc1Nn1cnnc1
1300 µM: MIC (Pseudomonas aeruginosa [10]) | MIC (Pseudomonas aeruginosa [11]) | MIC (Escherichia coli [38]) | MIC (Escherichia coli [42])
326 µM: MIC (Pseudomonas aeruginosa [29]) | MIC (Pseudomonas aeruginosa [30]) | MIC (Pseudomonas aeruginosa [31]) | MIC (Pseudomonas aeruginosa [33]) | MIC (Pseudomonas aeruginosa [34]) | MIC (Pseudomonas aeruginosa [36]) | MIC (Escherichia coli [37]) | MIC (Escherichia coli [39]) | MIC (Escherichia coli [40]) | MIC (Escherichia coli [43]) | MIC (Escherichia coli [44])
20 µM: MIC (Staphylococcus aureus [2]) | MIC (Staphylococcus aureus [3]) | MIC (Staphylococcus aureus [4]) | MIC (Micrococcus luteus [7]) | MIC (Micrococcus luteus [8]) | MIC (Escherichia coli [9]) | MIC [21] | MIC [22] | MIC [24] | MIC [25] | MIC [27] | MIC [28]
10 µM: MIC [5] | MIC (Bacillus cereus) | MIC (Enterococcus hirae) | MIC (Enterococcus faecalis) | MIC (Proteus vulgaris)
41 µM: MIC (Staphylococcus aureus [13]) | MIC (Staphylococcus aureus [18]) | MIC [23] | MIC [26]
652 µM: MIC [12] | MIC (Pseudomonas aeruginosa [32]) | MIC (Pseudomonas aeruginosa [35])
82 µM: MIC (Staphylococcus aureus [14]) | MIC (Staphylococcus aureus [15]) | MIC (Staphylococcus aureus [16]) | MIC (Staphylococcus aureus [17]) | MIC (Staphylococcus aureus [19]) | MIC (Staphylococcus aureus [20])
5 µM: MIC [6] | MIC (Bacillus spizizenii)
> 1300 µM: MIC (Escherichia coli [41])

Brc1ccc(-n2nnnc2Nn2cnnc2)cc1
52 µM: MIC (Staphylococcus aureus [2]) | MIC (Staphylococcus aureus [3]) | MIC (Staphylococcus aureus [4]) | MIC (Enterococcus hirae) | MIC (Enterococcus faecalis) | MIC (Escherichia coli [9])
209 µM: MIC [12]
62 µM: IC50 (A549)
5: selectivity ratio [50]
26 µM: MIC [5] | MIC (Bacillus spizizenii) | MIC (Bacillus cereus) | MIC (Micrococcus luteus [7]) | MIC (Micrococcus luteus [8])
0.31: selectivity ratio [51]
13 µM: MIC [6] | MIC (Proteus vulgaris)
65 µM: IC50 (HaCaT)
2.5: selectivity ratio [46] | selectivity ratio [48]
1.25: selectivity ratio [45] | selectivity ratio [47] | selectivity ratio [49]
834 µM: MIC (Pseudomonas aeruginosa [10]) | MIC (Pseudomonas aeruginosa [11])

Fc1ccc(-n2nnnc2Nc2nccs2)cc1Cl
14 µM: MIC [6] | MIC (Bacillus spizizenii) | MIC (Bacillus cereus) | MIC (Micrococcus luteus [8])
54 µM: MIC (Enterococcus faecalis)
60 µM: IC50 (A549) | IC50 (HaCaT)
4.28: selectivity ratio [46]
0.55: selectivity ratio [45]
> 865 µM: MIC (Escherichia coli [9]) | MIC (Proteus vulgaris) | MIC (Pseudomonas aeruginosa [10]) | MIC (Pseudomonas aeruginosa [11]) | MIC [12]
2.22: selectivity ratio [47] | selectivity ratio [48]
108 µM: MIC (Staphylococcus aureus [2]) | MIC (Staphylococcus aureus [3]) | MIC (Staphylococcus aureus [4])
27 µM: MIC [5] | MIC (Enterococcus hirae) | MIC (Micrococcus luteus [7])
0.07: selectivity ratio [49] | selectivity ratio [50] | selectivity ratio [51]
